These results are taken from patent US11464768B2, “Pimavanserin alone or in combination for use in the treatment of Alzheimer's disease psychosis” (ACADIA Pharmaceuticals Inc., priority 2016, dated 2022).

The test system of data set [1] is ADP patients. Nature of the data set: Same twelve-week study: safety assessment (adverse events). Conditions: for tolerability and safety profile: 34 mg once daily for twelve weeks, 181 patients in safety assessment. Type of data set: in vivo, human. The procedure: Each patient participated in a 3-week screening period, a 12-week double-blind treatment period, and a 4-week follow-up period. The maximum duration of the study for each patient was approximately 19 weeks. Pimavanserin was administered in tablet form, once daily by mouth in 34 mg doses (2 tablets of 17 mg pimavanserin), equivalent to 40 mg pimavanserin tartrate. (2 tablets of 20 mg pimavanserin tartrate) Placebo was administered with visibly matching tablets, using the same route and regimen. The safety of subjects was assessed by monitoring adverse events, physical examinations, vital signs, clinical laboratory tests (hematology, clinical chemistry, and urinalysis), and electrocardiograms. Furthermore cognitive status was assessed via MMSE.
The results of the study were obtained from a majority of the 181 patients, some of the patients were excluded from the endpoint results but all 181 patients were included in the safety assessment.

The subject of data set [2] is DOI ((±)-2,5-dimethoxy-4-iodoamphetamine, a serotonin agonist) induced head twitches. Conditions: rat; effective in these models at oral doses of 3 and 10 mg/kg; cited from earlier work.
The test system of data set [3] is ADP patients. Nature of the data set: Same twelve-week study: cognitive status by Mini-Mental State Examination (MMSE). Type of data set: in vivo, human. Particulars: 34 mg once daily; 12 week study. Here is the method:
In some embodiments the effect of the treatment is an antipsychotic effect, for example determined by an improved patient score in the Neuropsychiatric Inventory-Nursing Home Version (NPI-NH) psychosis scale, without impairing cognition, as determined by Mini-Mental State Examiner (MMSE) score. In some embodiment the antipsychotic effect without impairing cognition is determined over the 12 weeks of treatment. The MMSE is a brief 30-point questionnaire that is used to quantitatively assess cognition (Folstein et al., Journal of Psychiatric Research. 12 (3): 189-98, 1975). The MMSE test includes simple questions and problems in a number of areas: the time and place of the test, repeating lists of words, arithmetic, language use and comprehension, and copying a drawing. […]
Each patient participated in a 3-week screening period, a 12-week double-blind treatment period, and a 4-week follow-up period. […] The safety of subjects was assessed by monitoring adverse events, physical examinations, vital signs, clinical laboratory tests (hematology, clinical chemistry, and urinalysis), and electrocardiograms. Furthermore cognitive status was assessed via MMSE.

As for `CC(C)COc1ccc(CNC(=O)N(Cc2ccc(F)cc2)C2CCN(C)CC2)cc1` [Pimavanserin, N-(1-methylpiperidin-4-yl)-N-(4-fluorophenylmethyl)-N′-(4-(2-methylpropyloxy)phenylmethyl)carbamide], the “tolerability and safety profile” value in the data set with ADP patients [1] is “safe and well tolerated”; in the data set on ADP patients [1] (listed as pimavanserin), “well tolerated”. In the data set with ADP patients [1] (pimavanserin arm (same in placebo arm)), the “effect on cognitive function or motor functions” value is on record as “no negative effect on cognitive function or motor functions”. The “adverse event: falls” value in the data set on ADP patients [1] (pimavanserin arm, placebo arm 23.1%) is 23.3%. Further, in the data set on ADP patients [1] (pimavanserin arm, placebo arm 27.5%), the “adverse event: urinary tract infection” value worked out at 22.2%. In addition, the “activity in DOI induced head twitches” value in data set [2] was “active”. Further, in the data set with ADP patients [3], the “cognition as measured by the Mini-Mental State Examination (MMSE) score” value is listed as “did not impair cognition”.
